Assay results taken from the supplement of paper PMC10307832.

How the values were obtained:
Experiment in all cases: relative viability (nuclei count vs DMSO), 5 days (fraction); higher = more cells survive
XMD8-85 + Navitoclax = compound: CN1CCN(CC1)C2=CC(=C(C=C2)NC3=NC=C4C(=N3)N(C5=CC=CC=C5C(=O)N4C)C)OC [XMD8-85] + CC1(C)CCC(c2ccc(Cl)cc2)=C(CN2CCN(c3ccc(C(=O)NS(=O)(=O)c4ccc(N[C@H](CCN5CCOCC5)CSc5ccccc5)c(S(=O)(=O)C(F)(F)F)c4)cc3)CC2)C1 [Navitoclax] (partner 0.5 µM)
In short: (§1)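 Lung cancer cell lines in 1536-well plates got either a single drug or a fixed anchor-drug dose together with five library-drug doses (not always all listed) in √10 steps, by pin tool, on the day after seeding. Nuclei were counted after 5 days, and relative viability is the treated-to-vehicle ratio of nuclei counts. Values are medians of duplicate plates.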

XMD8-85 + Palbociclib = compound: CN1CCN(CC1)C2=CC(=C(C=C2)NC3=NC=C4C(=N3)N(C5=CC=CC=C5C(=O)N4C)C)OC [XMD8-85] + CC(=O)c1c(C)c2cnc(Nc3ccc(N4CCNCC4)cn3)nc2n(C2CCCC2)c1=O [Palbociclib] (partner 0.5 µM)
In short: as §1

4EGI-1 + Linsitinib = compound: O=C(O)C(Cc1ccccc1[N+](=O)[O-])=NNc1nc(-c2ccc(Cl)c(Cl)c2)cs1 (mixture of isomers) [4EGI-1] + C[C@]1(O)C[C@@H](c2nc(-c3ccc4ccc(-c5ccccc5)nc4c3)c3c(N)nccn32)C1 [Linsitinib] (partner 1 µM)
In short: as §1

4EGI-1 + Crizotinib = compound: O=C(O)C(Cc1ccccc1[N+](=O)[O-])=NNc1nc(-c2ccc(Cl)c(Cl)c2)cs1 (mixture of isomers) [4EGI-1] + C[C@@H](Oc1cc(-c2cnn(C3CCNCC3)c2)cnc1N)c1c(Cl)ccc(F)c1Cl [Crizotinib] (partner 1 µM)
In short: as §1

Cell Line	relative viability (XMD8-85 + Navitoclax; first compound 0.08 µM)	relative viability (XMD8-85 + Navitoclax; first compound 0.253 µM)	relative viability (XMD8-85 + Navitoclax; first compound 0.8 µM)	relative viability (XMD8-85 + Navitoclax; first compound 2.53 µM)	relative viability (XMD8-85 + Navitoclax; first compound 8 µM)	relative viability (XMD8-85 + Palbociclib; first compound 0.08 µM)	relative viability (XMD8-85 + Palbociclib; first compound 0.253 µM)	relative viability (XMD8-85 + Palbociclib; first compound 0.8 µM)	relative viability (XMD8-85 + Palbociclib; first compound 2.53 µM)	relative viability (XMD8-85 + Palbociclib; first compound 8 µM)	relative viability (4EGI-1 + Linsitinib; first compound 0.5 µM)	relative viability (4EGI-1 + Linsitinib; first compound 1.581 µM)	relative viability (4EGI-1 + Linsitinib; first compound 5 µM)	relative viability (4EGI-1 + Linsitinib; first compound 15.81 µM)	relative viability (4EGI-1 + Linsitinib; first compound 50 µM)	relative viability (4EGI-1 + Crizotinib; first compound 0.5 µM)	relative viability (4EGI-1 + Crizotinib; first compound 1.581 µM)	relative viability (4EGI-1 + Crizotinib; first compound 5 µM)	relative viability (4EGI-1 + Crizotinib; first compound 15.81 µM)	relative viability (4EGI-1 + Crizotinib; first compound 50 µM)
NCI-H520	1.2	1.19	1.05	1.06	0.829	0.181	0.211	0.199	0.221	0.196	1.19	0.984	1.01	0.75	0.558	0.963	0.868	1.02	0.642	0.648
NCI-H358						0.244	0.126	0.138	0.155	0.132	0.882	0.689	0.889	0.69	0.208	0.566	0.413	0.645	0.378	0.247
NCI-H1650	1.15	1.32	1.29	1.16	0.439	0.296	0.317	0.318	0.353	0.193						1.03		0.888	0.547	0.246
RERF-LC-KJ	0.712	0.96	0.982	1.03	0.565	1.09	1.13	1.18	1.23	0.768	0.966	0.706	0.868	0.815	0.843	0.852	0.676	0.815	0.675	0.684
LOU-NH91	0.69	0.764	0.639	0.7	0.546	0.536	0.496	0.503	0.534	0.514	1.11		0.97	0.543	0.665	0.788		0.72	0.508	0.55
Calu-6	0.93	0.953	0.911	1.02	0.668						1.11	0.729	0.995	0.851	0.9	0.796	0.756	0.854	0.834	0.201
HCC-15	0.731	0.642	0.698	0.655	0.499	0.728	0.705	0.751	0.708	0.619	0.884	0.836	0.865	0.728	0.432	0.831	0.893	0.858	0.776	0.598
NCI-H23	0.878	1.22	0.686	0.657	0.544	0.488		0.525	0.441	0.413	0.718		0.704	0.629	0.496	0.592		0.654	0.501	0.481
HCC-78	0.891	0.882	0.6	0.682	0.58	0.544	0.459	0.564	0.503	0.435	0.612	0.373	0.453	0.484	0.479	0.365	0.258	0.371	0.286	0.373
NCI-H1299	1.1	1.06	1.06	1	0.804						0.944	0.931	0.994	1.05	0.849	0.98	1	0.914	0.973	0.386
LC-2-ad	0.512	0.364		0.574	0.328	0.482	0.452	0.51	0.49	0.39	0.897	0.764	0.83	0.432	0.13	0.433		0.451	0.343	0.411
A549	1.33	1.24	1.28	1.19	0.933						0.825		0.573	0.579	0.611	0.742	0.683	0.787	0.669	0.0783
NCI-H2342						0.445	0.561	0.503	0.544	0.533										
NCI-H1563											1.31	0.979	1.29	1.22	0.883	0.905	0.742	0.857	0.81	0.627
NCI-H1395	1.09	1.18	1.3	1.03	1.02	0.503	0.61	0.621	0.54	0.495	1.29		1.52	0.874	0.534					
IA-LM	0.75		0.763	0.641	0.185						0.536	0.492	0.649	0.251	0.163	0.903	0.629	0.569	0.112	0.0835
NCI-H2170	0.62	0.682	0.64	0.675	0.666	0.38	0.374	0.436	0.383	0.332						1.24	1.15	1.15	0.902	0.586
NCI-H650						0.275	0.32	0.302	0.288	0.255	0.996		1.24	0.915	0.732	0.847		0.811	0.596	0.59
NCI-H661						0.401		0.4	0.443	0.346	0.723	0.502	0.624	0.394	0.309	0.903		0.954	0.903	0.882
NCI-H522						1.09	1.03	0.822	0.737	0.648										
ChaGo-K-1	0.788	0.983	1.02	1.13	0.421	0.99	0.965	0.963	0.931	0.899						1.23		1.15	0.961	0.553
